Assays:
[1] = DRUGMATRIX: Glutamate, Kainate radioligand binding (ligand: [3H] Kainic acid); format: cell membranes, Rattus norvegicus, Wistar, Brain, Membrane; conditions: Not Active = under 50% inhibition at 10 µM
[2] = molecular target: T1, C-X-C chemokine receptor type 1 (Homo sapiens, UniProt P25024); also: in other assays of this panel Not Active means under 50% inhibition at 10 µM
T1 sequence (P25024 whole entry): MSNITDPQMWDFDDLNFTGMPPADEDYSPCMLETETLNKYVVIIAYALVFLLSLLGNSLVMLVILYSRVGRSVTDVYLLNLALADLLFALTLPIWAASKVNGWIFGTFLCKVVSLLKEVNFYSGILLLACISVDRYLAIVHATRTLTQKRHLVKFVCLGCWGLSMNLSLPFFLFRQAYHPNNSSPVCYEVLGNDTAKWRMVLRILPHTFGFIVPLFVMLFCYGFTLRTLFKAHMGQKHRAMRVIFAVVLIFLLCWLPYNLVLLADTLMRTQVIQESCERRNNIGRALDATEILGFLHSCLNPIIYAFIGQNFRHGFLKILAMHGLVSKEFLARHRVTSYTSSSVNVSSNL

[3] = molecular target: D(1A) dopamine receptor (Homo sapiens, UniProt P21728); assay: DRUGMATRIX: Dopamine D1 radioligand binding (ligand: [3H] SCH-23390); format: cell membranes, CHO, Membrane; conditions: cho; Not Active = under 50% inhibition at 10 µM
Sequence of D(1A) dopamine receptor (P21728 whole entry): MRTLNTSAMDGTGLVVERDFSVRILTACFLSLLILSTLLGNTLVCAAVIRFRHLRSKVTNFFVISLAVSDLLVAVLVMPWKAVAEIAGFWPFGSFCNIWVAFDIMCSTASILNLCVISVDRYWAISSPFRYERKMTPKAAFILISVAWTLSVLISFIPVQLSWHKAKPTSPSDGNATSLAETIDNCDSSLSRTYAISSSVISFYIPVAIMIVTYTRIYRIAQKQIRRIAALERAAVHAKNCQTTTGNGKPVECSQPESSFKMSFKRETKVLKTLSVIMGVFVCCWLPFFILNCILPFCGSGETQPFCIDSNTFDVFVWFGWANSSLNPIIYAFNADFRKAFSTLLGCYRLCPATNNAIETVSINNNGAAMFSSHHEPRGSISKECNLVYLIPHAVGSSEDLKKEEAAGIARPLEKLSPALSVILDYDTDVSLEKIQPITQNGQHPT

[4] = molecular target: Substance-P receptor (Homo sapiens, UniProt P25103); format: cell membranes, CHO, Membrane; conditions: cho; also: in other assays of this panel Not Active means under 50% inhibition at 10 µM
Sequence of Substance-P receptor (P25103 whole entry): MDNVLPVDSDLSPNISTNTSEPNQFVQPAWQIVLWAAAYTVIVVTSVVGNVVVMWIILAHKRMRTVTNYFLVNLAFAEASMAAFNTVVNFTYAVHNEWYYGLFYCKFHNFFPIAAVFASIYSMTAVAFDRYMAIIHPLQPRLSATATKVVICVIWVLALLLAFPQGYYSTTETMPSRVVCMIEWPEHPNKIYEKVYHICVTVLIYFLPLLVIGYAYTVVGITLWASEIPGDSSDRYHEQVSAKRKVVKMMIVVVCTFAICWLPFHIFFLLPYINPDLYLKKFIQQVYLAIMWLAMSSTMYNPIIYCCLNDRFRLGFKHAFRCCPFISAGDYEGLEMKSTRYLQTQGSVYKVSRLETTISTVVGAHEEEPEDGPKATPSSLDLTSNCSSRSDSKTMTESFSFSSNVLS

[5] = molecular target: T2, Adenosine receptor A3 (Homo sapiens, UniProt P0DMS8); format: cell membranes, CHO-K1, Membrane; conditions: cho-k1;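 also: radioligand binding assay with AB-MECA serving as the labeled ligand; in other assays of this panel Not Active means under 50% inhibition at 10 µM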
T2 sequence (P0DMS8 whole entry): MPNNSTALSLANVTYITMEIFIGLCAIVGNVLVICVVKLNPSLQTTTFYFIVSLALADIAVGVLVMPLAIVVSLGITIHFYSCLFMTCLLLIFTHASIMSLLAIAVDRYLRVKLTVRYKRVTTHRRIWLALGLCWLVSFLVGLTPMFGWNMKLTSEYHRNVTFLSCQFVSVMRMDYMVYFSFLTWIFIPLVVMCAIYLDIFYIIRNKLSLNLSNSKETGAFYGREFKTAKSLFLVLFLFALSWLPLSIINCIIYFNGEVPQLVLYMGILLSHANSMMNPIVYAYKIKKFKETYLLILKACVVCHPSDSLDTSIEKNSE

[6] = molecular target: Melanocortin receptor 3 (Homo sapiens, UniProt P41968); format: cell membranes, Membrane; conditions: hek293; also: in other assays of this panel Not Active means under 50% inhibition at 10 µM
Sequence of Melanocortin receptor 3 (P41968 whole entry): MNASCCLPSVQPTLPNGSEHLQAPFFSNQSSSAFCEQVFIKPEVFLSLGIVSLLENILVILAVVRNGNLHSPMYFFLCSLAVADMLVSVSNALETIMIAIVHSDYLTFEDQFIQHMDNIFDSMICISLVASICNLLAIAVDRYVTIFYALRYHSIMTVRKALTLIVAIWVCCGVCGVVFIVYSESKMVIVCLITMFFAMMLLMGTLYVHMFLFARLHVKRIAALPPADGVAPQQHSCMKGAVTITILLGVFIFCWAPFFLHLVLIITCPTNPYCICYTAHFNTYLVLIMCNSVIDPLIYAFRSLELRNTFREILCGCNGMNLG

[7] = DRUGMATRIX: Glutamate, AMPA radioligand binding (ligand: [3H] AMPA); format: cell membranes, Rattus norvegicus, Wistar, Cerebral cortex, Membrane; conditions: Not Active = under 50% inhibition at 10 µM
[8] = molecular target: T3, Interstitial collagenase (Homo sapiens, UniProt P03956); format: tissue-based, Rheumatoid synovial fibroblasts
T3 sequence (P03956 whole entry): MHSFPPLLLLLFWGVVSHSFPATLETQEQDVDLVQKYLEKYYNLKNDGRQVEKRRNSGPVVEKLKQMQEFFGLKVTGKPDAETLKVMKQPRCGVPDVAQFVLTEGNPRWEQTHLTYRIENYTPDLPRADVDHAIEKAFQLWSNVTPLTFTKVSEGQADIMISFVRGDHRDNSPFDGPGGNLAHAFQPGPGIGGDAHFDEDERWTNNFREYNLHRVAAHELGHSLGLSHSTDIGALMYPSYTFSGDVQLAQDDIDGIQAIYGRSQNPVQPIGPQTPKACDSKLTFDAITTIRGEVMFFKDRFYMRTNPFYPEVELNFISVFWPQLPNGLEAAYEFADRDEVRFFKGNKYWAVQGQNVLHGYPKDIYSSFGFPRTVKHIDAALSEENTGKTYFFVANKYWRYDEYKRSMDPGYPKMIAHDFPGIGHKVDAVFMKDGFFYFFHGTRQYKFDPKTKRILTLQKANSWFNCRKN

[9] = molecular target: Carbonic anhydrase 2 (Homo sapiens, UniProt P00918); assay: DRUGMATRIX: Carbonic Anhydrase II enzyme inhibition (substrate: 4-Nitrophenyl acetate (4-NPA)); format: tissue-based, Erythrocyte; conditions: erythrocyte; Not Active = under 50% inhibition at 10 µM
[10] = DRUGMATRIX: GABAA, Flunitrazepam, Central radioligand binding (ligand: [3H] Flunitrazepam); format: cell membranes, Rattus norvegicus, Wistar, Brain, Membrane; conditions: Not Active = under 50% inhibition at 10 µM
[11] = DRUGMATRIX: Serotonin (5-Hydroxytryptamine) 5-HT3 radioligand binding (ligand: [3H] GR-65630); format: cell membranes, Membrane; conditions: hek293; Not Active = under 50% inhibition at 10 µM
[12] = molecular target: D(3) dopamine receptor (Homo sapiens, UniProt P35462); assay: DRUGMATRIX: Dopamine D3 radioligand binding (ligand: [3H] Spiperone); format: cell membranes, CHO, Membrane; conditions: cho
Sequence of D(3) dopamine receptor (P35462 whole entry): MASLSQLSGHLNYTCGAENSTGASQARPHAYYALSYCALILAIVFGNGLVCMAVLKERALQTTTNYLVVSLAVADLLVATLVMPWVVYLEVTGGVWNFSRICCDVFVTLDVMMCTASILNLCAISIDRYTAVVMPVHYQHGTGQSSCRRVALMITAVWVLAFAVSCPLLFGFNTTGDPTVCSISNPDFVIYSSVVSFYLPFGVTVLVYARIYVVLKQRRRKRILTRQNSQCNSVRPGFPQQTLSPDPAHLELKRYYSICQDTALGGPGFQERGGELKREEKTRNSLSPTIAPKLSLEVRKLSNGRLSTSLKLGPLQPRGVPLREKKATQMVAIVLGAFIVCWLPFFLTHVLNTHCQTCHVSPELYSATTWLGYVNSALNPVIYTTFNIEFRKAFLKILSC

[13] = molecular target: Mitogen-activated protein kinase 14 (Homo sapiens, UniProt Q16539); set-up: species or system Escherichia coli
Sequence of Mitogen-activated protein kinase 14 (Q16539 whole entry): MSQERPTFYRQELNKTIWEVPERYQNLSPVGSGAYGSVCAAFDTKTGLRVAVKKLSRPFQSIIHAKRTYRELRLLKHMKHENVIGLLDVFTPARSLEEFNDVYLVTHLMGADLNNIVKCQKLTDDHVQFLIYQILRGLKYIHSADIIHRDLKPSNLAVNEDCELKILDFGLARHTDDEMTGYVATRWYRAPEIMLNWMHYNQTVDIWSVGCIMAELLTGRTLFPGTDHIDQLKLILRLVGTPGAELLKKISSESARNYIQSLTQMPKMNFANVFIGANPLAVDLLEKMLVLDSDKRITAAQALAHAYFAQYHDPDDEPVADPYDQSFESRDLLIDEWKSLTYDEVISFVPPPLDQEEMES

[14] = molecular target: T4, Progesterone receptor (Bos taurus, UniProt Q690N0); assay: DRUGMATRIX: Progesterone radioligand binding (ligand: [3H] R-5020); format: tissue-based, Uterus; conditions: Not Active = under 50% inhibition at 10 µM
T4 sequence (Q690N0 whole entry): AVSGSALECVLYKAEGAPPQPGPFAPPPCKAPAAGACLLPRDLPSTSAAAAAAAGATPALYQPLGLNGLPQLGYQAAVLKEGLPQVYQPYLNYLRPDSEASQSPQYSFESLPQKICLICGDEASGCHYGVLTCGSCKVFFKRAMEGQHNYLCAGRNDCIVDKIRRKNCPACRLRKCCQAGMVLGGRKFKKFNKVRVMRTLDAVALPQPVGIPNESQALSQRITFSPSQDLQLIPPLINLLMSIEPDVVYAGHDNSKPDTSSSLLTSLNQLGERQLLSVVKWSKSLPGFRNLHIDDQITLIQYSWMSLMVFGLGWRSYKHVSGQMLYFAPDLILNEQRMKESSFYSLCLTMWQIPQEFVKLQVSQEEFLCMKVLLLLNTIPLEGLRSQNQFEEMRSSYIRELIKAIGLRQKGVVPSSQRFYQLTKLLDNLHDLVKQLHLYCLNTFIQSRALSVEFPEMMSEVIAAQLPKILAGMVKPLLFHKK

[15] = DRUGMATRIX: GABAA, Muscimol, Central radioligand binding (ligand: [3H] Muscimol); format: cell membranes, Rattus norvegicus, Wistar, Brain, Membrane; conditions: Not Active = under 50% inhibition at 10 µM
[16] = molecular target: Aldo-keto reductase family 1 member B1 (Rattus norvegicus, UniProt P07943); format: tissue-based, Lens of camera-type eye
[17] = DRUGMATRIX: Calcium Channel Type L, Dihydropyridine radioligand binding (ligand: [3H] Nitrendipine); format: cell membranes, Rattus norvegicus, Wistar, Cerebral cortex, Membrane; conditions: Not Active = under 50% inhibition at 10 µM
[18] = DRUGMATRIX: Phorbol Ester radioligand binding (ligand: [3H] PDBu); format: cell membranes, Mus musculus, ICR, Brain, Membrane; conditions: Not Active = under 50% inhibition at 10 µM
[19] = molecular target: Delta-type opioid receptor (Homo sapiens, UniProt P41143); format: cell membranes, HEK293, Membrane; conditions: hek293; also: in other assays of this panel Not Active means under 50% inhibition at 10 µM
Sequence of Delta-type opioid receptor (P41143 whole entry): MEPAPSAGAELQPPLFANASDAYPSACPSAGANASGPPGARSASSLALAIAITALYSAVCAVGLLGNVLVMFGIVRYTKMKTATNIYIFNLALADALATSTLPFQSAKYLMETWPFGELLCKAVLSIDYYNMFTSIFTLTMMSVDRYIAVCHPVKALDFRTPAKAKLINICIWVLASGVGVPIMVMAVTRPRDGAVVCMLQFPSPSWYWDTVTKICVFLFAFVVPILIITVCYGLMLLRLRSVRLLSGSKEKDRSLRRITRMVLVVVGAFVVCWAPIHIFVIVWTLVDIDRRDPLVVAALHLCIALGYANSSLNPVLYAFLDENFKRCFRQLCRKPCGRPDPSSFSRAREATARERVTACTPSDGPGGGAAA

[20] = molecular target: Tyrosine-protein kinase Fyn (Homo sapiens, UniProt P06241); assay: biochemical; format: cell-based, Insect cells; conditions: insect cells
Sequence of Tyrosine-protein kinase Fyn (P06241 whole entry): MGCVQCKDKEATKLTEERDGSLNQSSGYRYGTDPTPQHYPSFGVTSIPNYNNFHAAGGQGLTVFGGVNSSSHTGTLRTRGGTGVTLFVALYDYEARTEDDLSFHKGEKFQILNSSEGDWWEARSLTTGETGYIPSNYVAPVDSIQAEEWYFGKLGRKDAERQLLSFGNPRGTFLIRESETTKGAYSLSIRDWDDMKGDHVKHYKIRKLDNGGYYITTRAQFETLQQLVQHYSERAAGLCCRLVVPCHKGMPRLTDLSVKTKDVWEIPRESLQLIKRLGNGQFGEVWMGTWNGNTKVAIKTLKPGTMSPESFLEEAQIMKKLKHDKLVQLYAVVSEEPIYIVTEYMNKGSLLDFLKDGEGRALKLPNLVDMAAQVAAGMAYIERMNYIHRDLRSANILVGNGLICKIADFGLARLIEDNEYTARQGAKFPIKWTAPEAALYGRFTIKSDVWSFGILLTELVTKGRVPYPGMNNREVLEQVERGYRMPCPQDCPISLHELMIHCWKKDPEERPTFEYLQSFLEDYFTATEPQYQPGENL

Cc1cc(NS(=O)(=O)c2ccc(N)cc2)no1 [SULFAMETHOXAZOLE]
Not Active: IC50 [1] | Ki [1] | IC50 [2] | IC50 [3] | IC50 [4] | IC50 [5] | IC50 [6] | IC50 [7] | Ki [7] | IC50 [8] | IC50 [9] | IC50 [10] | Ki [10] | IC50 [11] | Ki [11] | IC50 [12] | IC50 [13] | IC50 [14] | IC50 [15] | Ki [15] | IC50 [16] | IC50 [17] | Ki [17] | IC50 [18] | Ki [18] | IC50 [19] | IC50 [20]

COC(=O)c1ccc(O)cc1 [METHYLPARABEN]
Not Active: IC50 [1] | Ki [1] | IC50 [2] | IC50 [3] | IC50 [4] | IC50 [5] | IC50 [6] | IC50 [7] | Ki [7] | IC50 [8] | IC50 [9] | IC50 [10] | Ki [10] | IC50 [11] | Ki [11] | IC50 [12] | IC50 [13] | IC50 [14] | IC50 [15] | Ki [15] | IC50 [16] | IC50 [17] | Ki [17] | IC50 [18] | Ki [18] | IC50 [19] | IC50 [20]

Cc1ncc([N+](=O)[O-])n1CC(C)O (stereo unspecified) [SECNIDAZOLE]
Not Active: IC50 [1] | Ki [1] | IC50 [2] | IC50 [3] | IC50 [4] | IC50 [5] | IC50 [6] | IC50 [7] | Ki [7] | IC50 [8] | IC50 [9] | IC50 [10] | Ki [10] | IC50 [11] | Ki [11] | IC50 [12] | IC50 [13] | IC50 [14] | IC50 [15] | Ki [15] | IC50 [16] | IC50 [17] | Ki [17] | IC50 [18] | Ki [18] | IC50 [19] | IC50 [20]

From ChEMBL document CHEMBL1909046, “DrugMatrix in vitro pharmacology data”
